Type in all cases: in vivo, mouse
The test system of experiment [1] is LPS induced sepsis and subsequent AKI. Kind of experiment: Renal function assessment: serum creatinine in LPS induced AKI. Here is the method:
(§1) Experimental Design for IGF-1 and BTP-2 studies—The animal experiments involved B6 mice between 5-8 weeks of age. Most experiments involved five groups of animals: (1) healthy, (2) LPS untreated (LPS-No Tx), (3) IGF-I in vivo gene therapy one day before LPS injection (LPS+IGF-1), (4) BTP-2 16 mg/kg i.p. at the start of the study and the (5) combined therapy with IGF-I and BTP-2 (LPS-IGF-1+BTP-2). For the survival experiment, a lethal dose of LPS (25 mg/kg) was used and all of the untreated animals died by 72 hours. In the other experiments, a sublethal dose of LPS (20 mg/kg) was used.
(§2) LPS induced sepsis and subsequent AKI—Female C57BL/6 mice received a sublethal or lethal dose of LPS from E. coli (0127: B8 strain, Sigma Aldrich, St. Louis, MO, USA) in a concentration of 20 or 25 mg/kg body weight administrated in sterile PBS by intraperitoneal injection.
(§3) Treatment—In a preventive therapeutic strategy, some of the mice received an intramuscular injection of Lenti-IGF-1 24 hours before LPS injection; whereas, the calcium signaling blocker BTP-2 (16 mg/kg, Cayman Chemical) was administrated 1 hour before LPS injection. Some of the animals received a combination of Lenti-IGF-1 and BTP-2. Control group mice were injected with an equal volume of PBS.
[…] Serum creatinine (CREA) were detected by Creatinine Assay Kit (Cayman Chemicals).

A further experiment relates to LPS-induced AKI mice. Nature of the experiment: Survival test with a lethal dose of LPS (25 mg/kg body weight). As to conditions: LPS 25 mg/kg i.p.; for overall survival rate: end of the experiment (144 h) (FIG. 1D); for mortality: pretreatment (FIG. 1D). The protocol: Different components of the treatment regimen were tested, individually and in combination, for their effect on prolonging survival or affecting mortality. A survival test was performed with a lethal dose of LPS (25 mg/kg body weight). As LPS causes AKI, a mouse model was utilized where AKI was induced by parenteral injection of LPS. Animals were treated with IGF-1 and Vitamin C, individually and in combination to evaluate their effect on survival (FIG. 1C). Kaplan Meier survival analysis was conducted between LPS induced systemic-sepsis animals treated with or without IGF-1, Vitamin C or combination therapy measured over the 96 hour-study period. […] No mortality was observed among healthy mice.
Different components of the treatment regimen were tested, individually and in combination, for their effect on prolonging survival or affecting mortality. A survival test was performed with a lethal dose of LPS (25 mg/kg body weight). Animals were treated with all components individually and in combination to evaluate their effect on survival. As LPS causes AKI, a mouse model was utilized where AKI was induced by parenteral injection of LPS. Pretreatment with IGF-1 monotherapy, BTP-2 monotherapy, and IGF-1+BTP-2 combination therapy was evaluated for effect in the mouse model to prevent the animals from succumbing to death due to organ failure in AKI. Mice (7 per groups) were i.p. injected with a lethal dose of LPS (25 mg/kg body weight). A group of mice received an i.p. injection of BTP-2 (16 mg/kg) one hour before LPS injection, and another group of mice received i.m. injection of Lenti-IGF1, 24 hours before LPS injection. A separate group of mice received a combination of IGF-1+BTP-2 as pretreatment. Mice were monitored every 6 hours. […] The mortality of LPS-injected mice that received an IGF-1 (labeled as LPS+IGF-1) pretreatment was 60% within 36 hours, and 88% at the end of the experiment (144 h). Mortality in LPS-injected mice that received BTP-2 (labeled as LPS+BTP-2) pretreatment was 0% within 36 hours, 30% within 48 hours and 72% at 144 hour-time point. However, the mortality in LPS-injected mice that received an IGF-1 and BTP-2 (labeled as LPS+IGF-1+BTP-2) pretreatment was comparatively low, which reached only 15% within 48 hours, and at the end of the 144 hour-time point reached only up to 43% (compared to LPS-No Tx). […] Meanwhile, no mortality was observed among mice treated with PBS, i.e., healthy group.
as §1, §2, §3

The next experiment concerns whole lung tissues. Kind of experiment: Measurements of mRNA expression in the lungs (RT-qPCR), acute lung injury induced by LPS. Conditions: for CD31 gene expression: lungs (FIG. 12A); for VEGF gene expression: lungs (FIG. 12B); for α-SMA gene expression: lungs (FIG. 12C); for TRPC3 gene expression: day 7 (FIG. 10B); for TRPC6 gene expression: day 7 (FIG. 10C); for Orai1 gene expression: day 7 (FIG. 10D); for NGAL expression: day 7 (FIG. 15A); for SP-D expression: day 7 (FIG. 15B); for caspase 3 expression: day 7 (FIG. 15C); for proinflammatory cytokines gene expression (IL-1, IL-6, IL-17, TNF-α, IFN-γ): day 7 (FIGS. 11A-11E); for TLR-4 gene expression: seven days after LPS (FIG. 10A). The protocol:
Acute Lung Injury Induced by LPS—Female C57BL/6 mice received a sublethal or lethal dose of LPS from Escherichia coli (0127: B8 strain, Sigma Aldrich, St. Louis, MO, USA). LPS in sterile PBS was administered intraperitoneally at 20- or 25-mg/kg body weight.
Treatment for Lung Studies-Lenti-IGF-I was administered intramuscularly 24 h before LPS injection. The TRP and ORAI calcium channel blocker BTP-2 (YM-58483 16 mg/kg, Cayman Chemical, Ann Arbor, MI, USA) was given IP 1 h before LPS injection. Some of the animals received a combination of lenti-IGF-I and BTP-2. Mice in control groups were injected with an equal volume of PBS.
Measurements of mRNA Expression in the Lungs—For the measurement of the mRNA expressions of the whole lung tissues, RT-qPCR was performed. Lung tissues were snap-frozen in liquid nitrogen. According to the manufacturer's instructions, total RNA was isolated using the RNeasy Micro Kit® (Qiagen, Valencia, CA, USA). First-strand cDNA was synthesized using the SuperScript® III Reverse Transcriptase (Life Technologies, Grand Island, NY, USA). Quantitative RT-qPCR was performed and analyzed in an Applied Biosystems 7900HT Real-Time PCR machine (Applied Biosystems, Foster City, CA). The PCR condition was 10 min at 95° C. followed by 40 cycles of 10 s at 95° C. and 15 s at 60° C. The relative amount of mRNA was calculated using the comparative Ct (DDCt) method. All specific amplicons were normalized against GAPDH. Table 2 (SEQ ID Nos:1-36) provides for a list of the primers.
For orientation: Real-time PCR tracks product formation cycle by cycle.

[2] abbreviates: at 48 hours after LPS (FIG. 6A).

Entries after “also recorded” stand apart in the source; their conditions may differ.

The term mortality denotes the percentage killed. With `Cc1nnsc1C(=O)Nc1ccc(-n2nc(C(F)(F)F)cc2C(F)(F)F)cc1` [BTP-2, 3,5-bis(trifluoromethyl)pyrazole derivative], the serum creatinine entry in experiment [1] (setting [2]) is “normalized”. For the same compound, in the experiment on LPS-induced AKI mice, the overall survival rate was found to be 28%. Further, the mortality in the experiment with LPS-induced AKI mice (end of the experiment (144 h)) was 72%. Further, in the experiment with LPS-induced AKI mice (within 36 hours), the mortality was determined as 0%. In addition, in the experiment with LPS-induced AKI mice (within 48 hours), the mortality is on record as 30%. In the experiment with whole lung tissues, the CD31 gene expression entry is listed as “corrected”, the VEGF gene expression entry is reported as “markedly increased the VEGF expression” and the α-SMA gene expression entry is “completely corrected”. In the experiment with whole lung tissues (lungs, day 7), the IFN-γ expression result was “decreased; also recorded: corrected”, the IL-17 expression result was “markedly decreased” and the TNF-α expression entry is recorded as “marked decreases; also recorded: decreased”. In the experiment with whole lung tissues (lungs), the TRPC3 gene expression entry is given as “decreased; also recorded: normalized”, the TRPC6 gene expression entry is listed as “decreased; also recorded: normalized”, the Orai1 gene expression entry was “significant decrease; also recorded: normalized” and the NGAL expression entry was “significantly reduced the elevated NGAL expression almost to normal”. In addition, in the experiment on whole lung tissues (lungs), the SP-D expression result was “normalized”; the “caspase 3 expression” value is recorded as “corrected the elevated caspase 3 expression”; the “proinflammatory cytokines gene expression (IL-1, IL-6, IL-17, TNF-α, IFN-γ)” value is given as “decreased the gene expression most of the proinflammatory cytokines to normal; also recorded: remarkably suppressive”; the TLR-4 gene expression entry is listed as “decreased the TLR-4 gene expression to the normal level”. For the same compound, in the experiment with whole lung tissues (lungs, day 7 (FIG. 10E)), the calcineurin gene expression result is “decreased; also recorded: normalized”. Moreover, the Nfat gene expression result with whole lung tissues (lungs, day 7 (FIG. 10F)) was “decreased; also recorded: normalized”.
“IGF-I: Insulin-like Growth Factor, delivered by a lentiviral vector engineered to express IGF-I injected into skeletal muscle”: the serum creatinine entry in experiment [1] (LPS i.p. day 0, measured 7 days later, IGF-I gene therapy one day prior to LPS (FIG. 1B)) is on record as “normalized”. Further, the serum creatinine entry in experiment [1] (setting [2]) is “improved”. Besides, the overall survival rate with LPS-induced AKI mice worked out at 12.5%. Also, the mortality with LPS-induced AKI mice (end of the experiment (144 h)) turned out to be 88%. Also, in the experiment with LPS-induced AKI mice (within 36 hours), the mortality is reported as 60%. In the experiment with whole lung tissues, the CD31 gene expression result is reported as “corrected”, the VEGF gene expression entry is recorded as “did not affect the VEGF expression” and the α-SMA gene expression result is listed as “did not indicate such beneficial effects”. Besides, in the experiment on whole lung tissues (lungs, day 7), the IFN-γ expression result is given as “decreased; also recorded: corrected”, the IL-6 expression entry was “markedly decrease”, the IL-17 expression entry was “markedly decreased” and the TNF-α expression entry is reported as “marked decreases; also recorded: decreased”. Moreover, in the experiment with whole lung tissues (lungs), the TRPC3 gene expression entry is reported as “decreased; also recorded: significant decrease”, the TRPC6 gene expression result is listed as “decreased; also recorded: significant decrease”, the Orai1 gene expression result is listed as “decreased; also recorded: significant decrease” and the NGAL expression entry is given as “significantly reduced the elevated NGAL expression almost to normal”. In the experiment with whole lung tissues (lungs), the SP-D expression result was “normalized”; the “caspase 3 expression” value is reported as “corrected the elevated caspase 3 expression”; the “proinflammatory cytokines gene expression (IL-1, IL-6, IL-17, TNF-α, IFN-γ)” value is on record as “decreased the gene expression most of the proinflammatory cytokines to normal; also recorded: remarkably suppressive; also recorded: as effective as BTP-2”; the TLR-4 gene expression entry was “decreased the TLR-4 gene expression to the normal level”.

Source of the values: patent US12714721B2, “Methods of treatment of a cytokine storm” (Loma Linda University Health, priority 2020, dated 2026).
